# From US8197865B2, “Methods and compositions for modulating hair growth or regrowth” (Access Business Group International LLC, priority 2005, dated 2012)
# Experiments:
# [1] = system: KGF secretion by human dermal papilla cells; test: KGF secretion by human dermal papilla cells, ELISA; format: cell-based; conditions: for Average % KGF Secretion: % control vs untreated control cells, overnight, typically 0.1, 1, 10 μg/ml
# Method: (§1) The ability of each of the ingredients in the compositions of the present invention to stimulate or increase secretion of growth factors, such as VEGF and KGF was measured. One of ordinary skill in the art will appreciate that there are numerous methods for measuring the ability of a substance to stimulate secretion of a growth factor. One example of such a method is set forth below and described in Lachgar S., et al., 1998. “Minoxidil upregulates the expression of vascular endothelial growth factor in human hair dermal papilla cells.” Br J. Dermatol. 138:407-11, the entire contents of which are incorporated by reference herein.
# (§2) For example, to measure the ability of a compound to stimulate secretion of a growth factor, 100 mg of each test sample in powder form was measured. A 50 mg/ml total extract of the sample was then prepared by sequential addition of DMSO:ethanol:water in a ratio of 5:3:2. One of ordinary skill in the art will understand that other amounts of sample may be used. For example, to prepare a 100 mg sample, 1 mL DMSO, 0.6 ml ethanol, and 0.4 ml water are mixed together.
# (§3) This solution is extensively mixed by vortexing and incubating for 10 minutes in a sonic water bath. Each sample ingredient is diluted from the stock concentration of 50 mg/ml to a test concentration (i.e., typically, 0.1, 1, and 10 μg/ml) in tissue culture media.
# (§4) The effect of each test sample ingredient may be measured using human dermal papilla cells, which may be purchased from Cell Applications (San Diego, Calif.). In particular, the cells are plated at 3.5×10^4/well in a standard 24 well tissue culture plate using a proprietary medium supplied by the company. Following plating, the cells are incubated overnight. The following day, the media in the wells is aspirated and replaced with fresh media containing the diluted sample ingredient. The cells are again incubated overnight with the samples.
# (§5) Growth factors in the cell culture supernatants are assayed using commercially available ELISA kits according to the manufacture's specifications. For example, an ELISA assay may be run to detected either KGF, VEGF, or both. An ELISA kit for detecting KGF may be purchased from R&D Systems (Minneapolis, Minn.). An ELISA kit for detecting VEGF may be purchased from Biosource International (Camarillo, Calif.).
# (§6) Data are reported as % control compared to the level of growth factor secreted from untreated control cells.
# [2] = system: DHT synthesis in DU-145 cells; test: Dihydrotestosterone (DHT) synthesis by human prostate cells (DU-145), DHT ELISA; format: cell-based; conditions: for Average % DHT Synthesis Observed: % control vs DHT in untreated control cells, testosterone 1 nM, 6 hours, test concentrations typically 0.1, 1, 10 μg/ml
# [3] = system: VEGF secretion by human dermal papilla cells; test: VEGF secretion by human dermal papilla cells, ELISA; format: cell-based; conditions: for Average % VEGF Secretion: % control vs untreated control cells, overnight, typically 0.1, 1, 10 μg/ml
# Method: as §1, §2, §3, §4, §5, §6
# proteasome = test: Proteasome inhibition, fluorescent substrate kit; format: biochemical; conditions: % control vs proteasome activity without inhibitor or test sample; test concentration given as 50 mg/ml
# Method: The ability of each of the ingredients in the compositions of the present invention to inhibit proteasome activity was measured. One of ordinary skill in the art will appreciate that there are numerous methods for measuring the ability of a substance to inhibit proteasome activity. One example of such a method is set forth below and described in U.S. Pat. No. 6,410,512, the entire contents of which are incorporated by reference herein.
# as §2, with “inhibit proteasome activity,” for “stimulate secretion of a growth factor,”, “neat” for “powder”
# This solution is extensively mixed by vortexing and incubating for 10 minutes in a sonic water bath. Each sample ingredient is diluted from the stock concentration to a test concentration of 50 mg/ml in proteasome reaction buffer media.
# Inhibition of proteasome activity may be assayed using a proteasome kit that is commercially available, for example from Boston Biochem (Boston, Mass.). Test sample ingredients are first added to the proteasome provided with the kit. The fluorescent proteasome substrate is then added and cleavage of the substrate by the proteasome is monitored using a fluorescence plate reader. Data are expressed as % control compared to proteasome activity without any inhibitor or test sample added.
# as §6
Compound,Average % KGF Secretion [1] [%],Average % DHT Synthesis Observed [2] [%],Average % VEGF Secretion [3] [%],Average % Proteasome Activity (proteasome) [%],"Effect on VEGF secretion, in words (summary of Table 3) [3]","Effect on KGF secretion, in words (summary of Table 3) [1]","Effect on DHT synthesis, in words (summary of Table 2) [2]"
O=c1cc(-c2ccc(O)c(-c3c(O)cc(O)c4c(=O)cc(-c5ccc(O)cc5)oc34)c2)oc2cc(O)cc(O)c12 [Amentoflavone],209.5,163.9,186.2,,,,
CC1=C(/C=C/C(C)=C/C=C/C(C)=C/C=C/C=C(C)/C=C/C=C(C)/C=C/C2=C(C)C(=O)[C@@H](O)CC2(C)C)C(C)(C)C[C@H](O)C1=O [Astaxanthin],327.1,103.9,249.4,114.0,most potent stimulators of VEGF,,
C[C@@H]1O[C@@H](O[C@H]2C(=O)c3c(O)cc(O)cc3O[C@@H]2c2ccc(O)c(O)c2)[C@H](O)[C@H](O)[C@H]1O [Astilbin],85.4,78.0,122.9,47.7,,most potent inhibitors of KGF secretion,
"O=C(CCCCc1ccc2c(c1)OCO2)N1CCCCC1 [Cosmoperine ™, tetrahydropiperine]",75.1,130.1,172.5,67.6,,most potent inhibitors of KGF secretion,
O=c1cc(-c2ccc(O)c(O)c2)oc2cc(O)cc(O)c12 [Luteolin],147.8,96.2,123.2,76.4,,,
disodium lauraminodipropionate tocopheryl phosphate [Vital ET ™],103.0,72.1,107.9,68.3,,,most potent inhibitors of DHT synthesis
